The source of these data is PubChem BioAssay AID220 (DTP/NCI, 2004).

This test concerns CD8F1 mice, subcutaneous mammary adenocarcinoma, T/C%. The experiment in a line: NCI In Vivo Anticancer Drug Screen. Data for tumor model Mammary Adenocarcinoma CD8F1 (subcutaneous) in CD8F1. The note with it: higher = larger tumour. The essentials: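 Compound-treated versus vehicle-treated mice with transplantable tumors; survival or tumor size compared as T/C.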
Setting [1] is: endpoint: median tumor weight (est.), dose: 0.5 mg/kg/injection, schedule: Q07DX005 (ip), vehicle: water.
The mark [2] stands for this setting: endpoint: median tumor weight (est.), dose: 1.0 mg/kg/injection, schedule: Q07DX005 (ip), vehicle: water.
Setting [3] is: endpoint: median tumor weight (est.), dose: 12.5 mg/kg/injection, schedule: Q07DX005 (ip), vehicle: saline.
Setting [4] is: endpoint: median tumor weight (est.), dose: 25.0 mg/kg/injection, schedule: Q07DX005 (ip), vehicle: saline.
[5] abbreviates: endpoint: median tumor weight (est.), dose: 50.0 mg/kg/injection, schedule: Q07DX005 (ip), vehicle: saline.
Setting [6] is: endpoint: median tumor weight (est.), dose: 100.0 mg/kg/injection, schedule: Q07DX005 (ip), vehicle: saline.
[7] abbreviates: endpoint: median tumor weight change, dose: 125.0 mg/kg/injection, schedule: Q01DX001 (ip), vehicle: saline with Tween-80.
Setting [8] is: endpoint: median tumor weight change, dose: 125.0 mg/kg/injection, schedule: Q01DX001 (ip), vehicle: Klucel (hydroxypropylcellulose) (HPC).
Setting [9] is: endpoint: median tumor weight change, dose: 250.0 mg/kg/injection, schedule: Q01DX001 (ip), vehicle: Klucel (hydroxypropylcellulose) (HPC).
Where [10] appears, read: endpoint: median tumor weight change, dose: 500.0 mg/kg/injection, schedule: Q01DX001 (ip), vehicle: Klucel (hydroxypropylcellulose) (HPC).

Values joined by “and” are separate entries in the source; they are usually repeats but may differ in a detail not shown here. Equal values may be shown once. Records with an inconclusive call do not appear.

`O=C1c2c(O)ccc(O)c2C(=O)c2c(NCCNCCO)ccc(NCCNCCO)c21`: the T/C by setting is: (endpoint: median tumor weight (est.), dose: 0.25 mg/kg/injection, schedule: Q07DX005 (ip), vehicle: acid diluted with saline) 106 % of control; (endpoint: median tumor weight (est.), dose: 0.5 mg/kg/injection, schedule: Q07DX005 (ip), vehicle: acid diluted with saline) 93 % of control; under setting [1], 59 % of control; (endpoint: median tumor weight (est.), dose: 1.0 mg/kg/injection, schedule: Q07DX005 (ip), vehicle: acid diluted with saline) 82 % of control; under setting [2], 112 % of control; (endpoint: median tumor weight (est.), dose: 2.0 mg/kg/injection, schedule: Q07DX005 (ip), vehicle: acid diluted with saline) 65 % of control.

With `[N-]=[N+]=CC(=O)CCC(N)C(=O)O` (stereo not given), the T/C by setting is: (endpoint: median tumor weight (est.), dose: 3.12 mg/kg/injection, schedule: Q04DX005 (ip), vehicle: saline) 22 % of control and 43 % of control; (endpoint: median tumor weight (est.), dose: 6.25 mg/kg/injection, schedule: Q04DX005 (ip), vehicle: saline) 31 % of control and 56 % of control; (endpoint: median tumor weight (est.), dose: 12.5 mg/kg/injection, schedule: Q04DX005 (ip), vehicle: saline) 30 % of control and 50 % of control; (endpoint: median tumor weight (est.), dose: 12.5 mg/kg/injection, schedule: Q07DX004 (ip), vehicle: saline) 85 % of control and 105 % of control; under setting [3], 23 % of control and 30 % of control; (endpoint: median tumor weight (est.), dose: 25.0 mg/kg/injection, schedule: Q01DX001 (ip), vehicle: saline) 35 % of control. Besides, the T/C is, setting by setting: (endpoint: median tumor weight (est.), dose: 25.0 mg/kg/injection, schedule: Q07DX004 (ip), vehicle: saline) 23 % of control and 34 % of control; under setting [4], 47 % of control; (endpoint: median tumor weight (est.), dose: 50.0 mg/kg/injection, schedule: Q01DX001 (ip), vehicle: saline) 35 % of control; (endpoint: median tumor weight (est.), dose: 50.0 mg/kg/injection, schedule: Q07DX004 (ip), vehicle: saline) 21 % of control and 31 % of control; under setting [5], 16 % of control and 33 % of control; (endpoint: median tumor weight (est.), dose: 100.0 mg/kg/injection, schedule: Q01DX001 (ip), vehicle: saline) 43 % of control. Moreover, the T/C under setting [6] was 6 % of control.

`CS(=O)(=O)OCCCCOS(C)(=O)=O`: the T/C (endpoint: median tumor weight (est.), dose: 12.5 mg/kg/injection, schedule: Q07DX005 (ip), vehicle: Klucel (hydroxypropylcellulose) (HPC)) was 91 % of control and 95 % of control; the T/C (endpoint: median tumor weight (est.), dose: 25.0 mg/kg/injection, schedule: Q07DX005 (ip), vehicle: Klucel (hydroxypropylcellulose) (HPC)) was 59 % of control and 70 % of control; the T/C (endpoint: median tumor weight (est.), dose: 200.0 mg/kg/injection, schedule: Q07DX005 (ip), vehicle: Klucel (hydroxypropylcellulose) (HPC)) was 8 % of control.

`O=[N+]([O-])c1ccc(-n2[nH]nnc2=S)cc1`: the T/C is, setting by setting: under setting [7], 101 % of control and 119 % of control; (endpoint: median tumor weight change, dose: 250.0 mg/kg/injection, schedule: Q01DX001 (ip), vehicle: saline with Tween-80) 112 % of control.

Regarding `CC[C@@]1(O)C[C@H](OC2CC(N(C)C)C(OC3CC(O)C(OC4CCC(=O)C(C)O4)C(C)O3)C(C)O2)c2c(cc3c(c2O)C(=O)c2c(O)ccc(O)c2C3=O)[C@H]1C(=O)OC` (stereo not given in full), the T/C is 43 % of control (endpoint: mean tumor weight, dose: 0.5 mg/kg/injection, schedule: Q07DX006 (ip), vehicle: water); 35 % of control (endpoint: mean tumor weight, dose: 1.0 mg/kg/injection, schedule: Q07DX006 (ip), vehicle: water); 5 % of control (endpoint: mean tumor weight, dose: 2.0 mg/kg/injection, schedule: Q07DX006 (ip), vehicle: water); 17 % of control (endpoint: mean tumor weight, dose: 4.0 mg/kg/injection, schedule: Q07DX006 (ip), vehicle: water); 69 % of control and 90 % of control under setting [1]; 83 % of control under setting [2]. For the same molecule, the T/C (endpoint: median tumor weight (est.), dose: 2.0 mg/kg/injection, schedule: Q07DX005 (ip), vehicle: water) is 37 % of control and 53 % of control; the T/C (endpoint: median tumor weight (est.), dose: 4.0 mg/kg/injection, schedule: Q07DX005 (ip), vehicle: water) was 8 % of control and 26 % of control; the T/C (endpoint: median tumor weight (est.), dose: 8.0 mg/kg/injection, schedule: Q07DX005 (ip), vehicle: water) is 1 % of control.

As for `CC(=O)NC(CCc1ccc(Cl)c(Cl)c1)c1cccc(O)c(=O)c1` (stereo not given), the T/C (endpoint: median tumor weight change, dose: 31.0 mg/kg/injection, schedule: Q01DX001 (ip), vehicle: Klucel (hydroxypropylcellulose) (HPC)) is 114 % of control; the T/C (endpoint: median tumor weight change, dose: 62.0 mg/kg/injection, schedule: Q01DX001 (ip), vehicle: Klucel (hydroxypropylcellulose) (HPC)) was 99 % of control; the T/C under setting [8] was 165 % of control; the T/C under setting [9] was 88 % of control; the T/C under setting [10] is 88 % of control.

Consider `CC(C#N)(C#N)N=Nc1ccc(Cl)cc1Cl`, for which the T/C under setting [7] was 161 % of control; the T/C (endpoint: median tumor weight change, dose: 500.0 mg/kg/injection, schedule: Q01DX001 (ip), vehicle: saline with Tween-80) is 115 % of control; the T/C (endpoint: median tumor weight change, dose: 1000.0 mg/kg/injection, schedule: Q01DX001 (ip), vehicle: saline with Tween-80) was 76 % of control.

Turning to `CC1(C)N=C(N)N=C(N)N1c1ccc(CCCCc2ccc(S(=O)(=O)F)cc2Cl)c(Cl)c1`, the T/C is 95 % of control (endpoint: median tumor weight (est.), dose: 12.5 mg/kg/injection, schedule: Q07DX005 (ip), vehicle: other); 42 % of control under setting [3]; 114 % of control (endpoint: median tumor weight (est.), dose: 12.5 mg/kg/injection, schedule: Q07DX005 (ip), vehicle: suspension in saline); 60 % of control under setting [4]; 105 % of control (endpoint: median tumor weight (est.), dose: 25.0 mg/kg/injection, schedule: Q07DX005 (ip), vehicle: suspension in saline); 39 % of control under setting [5]. Also, the T/C (endpoint: median tumor weight (est.), dose: 50.0 mg/kg/injection, schedule: Q07DX005 (ip), vehicle: suspension in saline) was 46 % of control; the T/C under setting [6] is 20 % of control; the T/C (endpoint: median tumor weight (est.), dose: 100.0 mg/kg/injection, schedule: Q07DX005 (ip), vehicle: suspension in saline) is 26 % of control; the T/C (endpoint: median tumor weight (est.), dose: 200.0 mg/kg/injection, schedule: Q07DX005 (ip), vehicle: saline) was 5 % of control; the T/C (endpoint: median tumor weight (est.), dose: 200.0 mg/kg/injection, schedule: Q07DX005 (ip), vehicle: suspension in saline) was 2 % of control; the T/C (endpoint: median tumor weight change, dose: 90.0 mg/kg/injection, schedule: Q01DX001 (ip), vehicle: saline with Tween-80) is 50 % of control. For the same molecule, the T/C is 53 % of control (endpoint: median tumor weight change, dose: 100.0 mg/kg/injection, schedule: Q01DX001 (ip), vehicle: saline with Tween-80); 84 % of control (endpoint: median tumor weight change, dose: 112.5 mg/kg/injection, schedule: Q01DX001 (ip), vehicle: saline with Tween-80); 64 % of control (endpoint: median tumor weight change, dose: 133.0 mg/kg/injection, schedule: Q01DX001 (ip), vehicle: saline with Tween-80); 12 % of control and 25 % of control (endpoint: median tumor weight change, dose: 200.0 mg/kg/injection, schedule: Q01DX001 (ip), vehicle: saline with Tween-80); 49 % of control (endpoint: median tumor weight change, dose: 225.0 mg/kg/injection, schedule: Q01DX001 (ip), vehicle: saline with Tween-80); 27 % of control (endpoint: median tumor weight change, dose: 300.0 mg/kg/injection, schedule: Q01DX001 (ip), vehicle: saline with Tween-80). Also, the T/C (endpoint: median tumor weight change, dose: 450.0 mg/kg/injection, schedule: Q01DX001 (ip), vehicle: saline with Tween-80) is 12 % of control.

In the case of `ClC1C(Cl)C(Cl)C(Cl)C(Cl)C1Cl` (stereo not given), the T/C is 169 % of control (endpoint: median tumor weight change, dose: 62.5 mg/kg/injection, schedule: Q01DX001 (ip), vehicle: Klucel (hydroxypropylcellulose) (HPC)); 105 % of control under setting [8]; 115 % of control under setting [9]; 64 % of control under setting [10].

On to `O=c1[nH]cnc2c1ccn2C1OC(CO)C(O)C1O` (stereo not given), for which the T/C by setting is: (endpoint: median tumor weight change, dose: 24.0 mg/kg/injection, schedule: Q01DX001 (ip), vehicle: saline) 74 % of control; (endpoint: median tumor weight change, dose: 48.0 mg/kg/injection, schedule: Q01DX001 (ip), vehicle: saline) 62 % of control.

As for `O=C(C1CO1)C(Cl)(Cl)Cl` (stereo not given), the T/C (endpoint: median tumor weight change, dose: 4.0 mg/kg/injection, schedule: Q01DX001 (ip), vehicle: saline) was 81 % of control; the T/C (endpoint: median tumor weight change, dose: 8.0 mg/kg/injection, schedule: Q01DX001 (ip), vehicle: saline) was 72 % of control; the T/C (endpoint: median tumor weight change, dose: 16.0 mg/kg/injection, schedule: Q01DX001 (ip), vehicle: saline) is 68 % of control; the T/C (endpoint: median tumor weight change, dose: 125.0 mg/kg/injection, schedule: Q01DX001 (ip), vehicle: saline) was 34 % of control.
